Test results from US20230263800A1, “COMPOSITIONS AND METHODS TO PROMOTE THYMIC FUNCTION” (Fred Hutchinson Cancer Center, priority 2020, published 2023).
“Also recorded” adds a separate entry of the source.

Tests used:
[1] = system: C57BL/6 mice given sublethal TBI; assay: Thymic regeneration after sublethal total body irradiation (SL-TBI, 550 cGy); format: in vivo, mouse; conditions: TC-G 1008 20 mg/mouse/day by guided feeding day 0 to day 10, 550 cGy TBI, day 10
Excerpt: FIGS. 4A-4G. […] (4A, 4B) 6-8 week-old female C57BL/6 mice were fed a normal or ZD diet for 21 days at which point mice were given a sublethal dose of total body irradiation (TBI, 550 cGy). (4A) Total thymic cellularity at days 7 and 14 after TBI (n=10/treatment/timepoint across two independent experiments). (4B) Total number of CD45-EpCAM^+MHCII^+UEA1^loLy51^hi (cTECs) and CD45^− EpCAM^+MHCII^+UEA1^hi Ly51^lo (mTECs) at days 7 and 14 after TBI (n=10/treatment/timepoint across two independent experiments). (4C) 6-12 week-old female BALB.B mice were fed with normal or ZD diet for 21 days, at which point mice were given a lethal dose of TBI (900cGy) and 10×10^6 T cell-depleted bone marrow (BM) cells from 6-8 week-old C57BL/6. One cohort also received 2×10^6 T cells to induce graft versus host disease (GVHD); thymic cellularity was quantified on day 14 after allogeneic hematopoietic stem cell transplant (allo-HCT, n=5-6/group). (4D) 6-8 week-old female C57BL/6 mice were fed with normal or ZD diet for 21 days at which point mice were given 550 cGy TBI and total thymus cellularity quantified on day 14. […] (4E) Total thymic cellularity. (4F) Total number of cTECs and mTECs. (4G) Total number of Ki-67+ thymic endothelial cells (TECs). […]

[2] = system: Bmp4 in exECs; assay: Bmp4 expression by qPCR in exECs; format: cell-based, mouse; conditions: TC-G 1008 25 μM, 24 hours, compared with ZnSO4 100 μM
[3] = system: mice given lethal TBI and T cell depleted BM (allo-HCT); assay: Thymic reconstitution after T cell-depleted allogeneic HCT; format: in vivo; conditions: BALB.B recipients, 900 cGy, TC-G 1008 20 mg/mouse/day day 0-8, 10 and 12, day 14
[4] = system: Male C57BL/6 mice aged 2 mo, 12 mo or 19 mo; assay: Thymus cellularity in mice aged 2, 12 or 19 months; format: in vivo, mouse; conditions: TC-G 1008 20 mg/kg/day for 5 days, day 7, versus untreated controls
Procedure: FIG. 14. Male C57BL/6 mice aged 2 mo, 12 mo or 19 mo were given the GPR39 agonist TC-G 1008 (20 mg/kg/day) for 5 days. Thymus cellularity was measured at day 7.

[5] = biological target: T1, GPR39 (Mus musculus, UniProt Q5U431); assay: Ca2+ live imaging of ECs with Fluo3-AM; format: cell-based; conditions: 20 mins post stimulation, AUC
T1 construct: endogenous in cells; host or cells: thymic endothelial cells (ECs / exECs)
T1 sequence (Q5U431 1-456): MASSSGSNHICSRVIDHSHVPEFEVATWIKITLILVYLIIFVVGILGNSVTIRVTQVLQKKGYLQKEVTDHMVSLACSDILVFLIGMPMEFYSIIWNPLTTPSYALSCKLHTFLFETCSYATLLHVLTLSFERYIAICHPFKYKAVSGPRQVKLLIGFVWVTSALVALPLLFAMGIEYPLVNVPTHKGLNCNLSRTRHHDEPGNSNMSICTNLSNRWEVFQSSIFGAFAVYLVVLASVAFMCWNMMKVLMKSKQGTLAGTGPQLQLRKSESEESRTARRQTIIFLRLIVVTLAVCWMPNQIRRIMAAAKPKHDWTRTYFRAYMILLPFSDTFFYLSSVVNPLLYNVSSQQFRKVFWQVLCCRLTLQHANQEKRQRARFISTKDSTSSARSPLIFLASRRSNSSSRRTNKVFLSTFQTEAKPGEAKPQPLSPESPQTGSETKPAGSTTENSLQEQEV
Excerpt: FIGS. 20A-20D. […] (20D) GPR39 cell surface levels in thymocytes and TECs at d0. Graphs represent mean+/−SEM.

CNc1nc(NCc2ccc(NS(C)(=O)=O)cc2Cl)cc(-c2ccccn2)n1 [TC-G 1008, N-[3-chloro-4-[[[2-(methylamino)-6-pyridin-2-ylpyrimidin-4-yl]amino]methyl]phenyl]methanesulfonamide]
thymic function (thymus cellularity) [1]: significantly improved thymic function | Bmp4 expression [2]: induced expression of Bmp4, greater than Zn alone; also recorded: induces expression of BMP4 | thymic function [3]: significantly improved thymic function | thymus cellularity [4]: significantly improved thymus cellularity | Ca2+ influx [5]: incudes Ca2+ influx
